Data on 3 compounds can be found in patent US20100278835A1, “NOVEL COMPOUNDS 660” (ASTRAZENECA UK LIMITED, priority 2009, published 2010).

Values after ≈ are worked out from the molar mass of the structure shown.

One data set can be described thus: Thermodynamic solubility. The conditions noted are these: aqueous buffer, thermodynamic from solid; 0.1M phosphate buffer pH 7.4, 25° C., 24 h, HPLC-UV. It is filed as physicochemical. As for the experimental part:
A known amount of the test compound was stirred in 0.1M phosphate buffer pH 7.4 at constant temperature (25° C.) for 24 h. The supernatant was then separated from un-dissolved material by double centrifugation, and subsequently analysed and quantified against a standard of known concentration in DMSO using generic HPLC-UV methodology coupled with mass spectral peak identification. Data are also included for a reference quinazolin-2,4-dione derivative disclosed in WO 03/053344.

Another data set deals with RSV RSS strain. Kind of data set: ELISA assay of antiviral activity against RSV (reduction in RSV protein expression). The class given is cell-based. The conditions noted are these: human respiratory syncytial virus, 72 h; Hep-2 cells infected with RSV RSS strain, multiplicity of infection 0.02, 3 days; concentration required to inhibit RSV protein expression by 50%. As for the experimental part:
The antiviral activity of these compounds against RSV was determined in an ELISA assay. […] ELISA assays were set up by seeding 96-well plates with 5×10^3 Hep-2 cells per well in 100 μl DMEM containing 10% FBS for 24 h. Compound dilutions were prepared in 0.5% DMSO and 50 μl/well was added to the assay plates, the plates were incubated at 37° C. in 5% CO2 for one hour. Cells were infected with 50 μl/well RSV RSS strain at a multiplicity of infection of 0.02 and were incubated at 37° C. in 5% CO2 for 3 days. Cells were then fixed and permeabilised with 75%/25% methanol acetone and blocked with 2% Marvel™, 0.05% Tween for one hour. Plates were then incubated in the presence of a 1:4000 dilution of […] polyclonal antibody (Millipore, AB1128) followed by a 1:1000 dilution of rabbit anti-goat, horseradish peroxidase (DAKO, PO449) labelled secondary antibody. The plates were developed with O-phenylenediamine in the presence of hydrogen peroxide. The antiviral activity of the compounds is presented as an IC50, the concentration required to inhibit RSV protein expression by 50%.
(In general: ELISA stands for enzyme-linked immunosorbent assay.)

As for `NCc1ccc2c(c1)nc(CN1C(=O)N(C3CC3)Cc3ccccc31)n2CCCC(F)(F)F` [Example 28, 1-[[5-(Aminomethyl)-1-(4,4,4-trifluorobutyl)benzimidazol-2-yl]methyl]-3-cyclopropyl-4H-quinazolin-2-one], the solubility (thermodynamic) (as a rule, the concentration in solution at equilibrium with solid) at 24 h in the data set “Thermodynamic solubility” amounted to 289 µM (≈ 132 µg/mL). Besides, inhibition with RSV RSS strain was half-maximal at 0.5 nM (IC50).
In the same order, the values of `Cc1cc2c(cc1CN)nc(CN1C(=O)N(C3CC3)Cc3ccccc31)n2CCC(C)C` [Example 46, 1-[[5-(Aminomethyl)-1-isopentyl-6-methyl-benzimidazol-2-yl]methyl]-3-cyclopropyl-4H-quinazolin-2-one] are 831 µM (≈ 359 µg/mL) and 1.5 nM.
In the case of `CC(C)CCn1c(CN2C(=O)N(C3CC3)Cc3c(F)cccc32)nc2cc(CN)ccc21` [Example 23, 1-[[5-(aminomethyl)-1-isopentyl-benzimidazol-2-yl]methyl]-3-cyclopropyl-5-fluoro-4H-quinazolin-2-one], the thermodynamic solubility at 24 h in “Thermodynamic solubility” is 242 µM (≈ 105 µg/mL). Besides, the IC50 (in general, the concentration that gives 50% inhibition) in the data set on RSV RSS strain was found to be 7.7 nM.
